Source: US8304394B2, “Low side effect pharmaceutical composition containing isoniazid” (priority 2008, dated 2012)

Biological target: CYP2E1 (Homo sapiens, UniProt P05181)
Assay: Chlorzoxazone hydroxylation inhibition (6-OH-CZX by LC/MS/MS)
Details: human, microsomes, pH 7.4

CYP2E1, sequence (P05181 whole entry): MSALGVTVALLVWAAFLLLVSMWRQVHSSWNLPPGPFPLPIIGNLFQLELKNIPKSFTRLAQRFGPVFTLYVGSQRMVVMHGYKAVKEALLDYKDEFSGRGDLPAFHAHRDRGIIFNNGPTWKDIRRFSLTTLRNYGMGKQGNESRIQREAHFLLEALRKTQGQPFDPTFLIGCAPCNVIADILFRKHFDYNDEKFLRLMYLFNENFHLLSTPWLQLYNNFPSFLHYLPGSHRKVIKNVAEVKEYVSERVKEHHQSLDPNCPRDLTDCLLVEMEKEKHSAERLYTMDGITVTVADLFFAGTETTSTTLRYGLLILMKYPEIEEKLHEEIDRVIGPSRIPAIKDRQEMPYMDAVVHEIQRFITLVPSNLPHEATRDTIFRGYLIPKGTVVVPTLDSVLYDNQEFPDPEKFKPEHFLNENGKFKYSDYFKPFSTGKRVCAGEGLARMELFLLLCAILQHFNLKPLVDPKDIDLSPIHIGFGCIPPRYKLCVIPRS

Row | SMILES | inhibition at 30 min, 16.5 µM [%] | inhibition at 30 min, 33 µM [%] | inhibition at 30 min, 66 µM [%]
1 | COc1cc(-c2oc3cc(O)cc(O)c3c(=O)c2O)ccc1O [Isorhamnetin] | 12.1 ± 1.06 | 18.7 ± 1.22 | 36.3 ± 1.59
2 | COc1ccc(-c2oc3cc(O)cc(O)c3c(=O)c2O)cc1O [Tamarixetin] | 37.4 ± 1.96 | 47.8 ± 2.81 | 50.9 ± 3.12
3 | O=c1cc(-c2ccc(O)cc2)oc2cc(O)cc(O)c12 [Apigenin] | 28.9 ± 1.54 | 36.8 ± 1.98 | 47.5 ± 3.66
4 | O=c1c(O)c(-c2cc(O)c(O)c(O)c2)oc2cc(O)cc(O)c12 [Myricetin] | 42.2 ± 2.55 | 59.2 ± 1.27 | 61.6 ± 0.88
5 | O=c1c(-c2ccc(O)cc2)coc2cc(O)cc(O)c12 [Genistein] | 43.9 ± 2.06 | 30.9 ± 1.62 | 36.9 ± 1.56
6 | O=C/C=C/c1ccccc1 [Trans-Cinnamaldehyde] | 60.8 ± 3 | 89.6 ± 1.52 | 92.81 ± 0.53
7 | O=c1cc(-c2ccc(O)cc2)oc2cc(O)c([C@@H]3O[C@H](CO)[C@@H](O)[C@H](O)[C@H]3O)c(O)c12 [Isovitexin] | 59.8 ± 1.41 | 67.6 ± 3.24 | 81.8 ± 1.34
8 | COc1cc(C2Oc3cc([C@H]4Oc5cc(O)cc(O)c5C(=O)[C@@H]4O)ccc3OC2CO)ccc1O (stereo partly drawn) [Silybin] | 59.5 ± 2.34 | 37.1 ± 1.15 | 39 ± 1.19
9 | O=c1c(O)c(-c2ccc(O)c(O)c2)oc2cc(O)cc(O)c12 [Quercetin] | 46.4 ± 4.68 | 53 ± 2.17 | 73.3 ± 1.57
10 | COc1ccc(-c2cc(=O)c3c(O)cc(O[C@@H]4O[C@H](CO[C@@H]5O[C@@H](C)[C@H](O)[C@@H](O)[C@H]5O)[C@@H](O)[C@H](O)[C@H]4O)cc3o2)cc1O [Diosmin] | 60 ± 1.96 | 43.1 ± 3.57 | 21.6 ± 1.19
11 | O=c1c(O)c(-c2ccc(O)cc2O)oc2cc(O)cc(O)c12 [Morin] | 36.9 ± 1.56 | 52.1 ± 1.7 | 60.3 ± 1.56
12 | O=c1c(O[C@@H]2O[C@H](CO)[C@H](O)[C@H](O)[C@H]2O)c(-c2ccc(O)c(O)c2)oc2cc(O)cc(O)c12 [Hyperoside] | -24.2 ± 1.19 | 35.6 ± 3.68 | 53.5 ± 1.2
13 | C=CC(=C)CCC=C(C)C [β-Myrcene] | 53.4 ± 4.93 | 75.5 ± 2.14 | 76.5 ± 2.18
14 | O=c1cc(-c2ccc(O)c(O)c2)oc2cc(O)cc(O)c12 [Luteolin] | 39.1 ± 3.42 | 43.4 ± 4.74 | 53.2 ± 1.78
15 | C[C@@H]1O[C@@H](Oc2c(-c3ccc(O)c(O)c3)oc3cc(O)cc(O)c3c2=O)[C@H](O)[C@H](O)[C@H]1O [Quercitrin] | 33.5 ± 4.29 | 53.8 ± 3.51 | 61 ± 5.88
16 | O=c1cc(-c2ccc(O)cc2)oc2c([C@@H]3O[C@H](CO)[C@@H](O)[C@H](O)[C@H]3O)c(O)cc(O)c12 [Vitexin] | 23.1 ± 1.19 | 30.6 ± 0.78 | 38.7 ± 1.62
17 | C[C@@H]1O[C@@H](OC[C@H]2O[C@@H](Oc3c(-c4ccc(O)c(O)c4)oc4cc(O)cc(O)c4c3=O)[C@H](O)[C@@H](O)[C@@H]2O)[C@H](O)[C@H](O)[C@H]1O [Rutin] | 30 ± 0.81 | 30.1 ± 1.62 | 43.5 ± 3.09
18 | CCCCCCCCCCCCCC(=O)OCC [Ethyl Myristate] | 22.1 ± 0.78 | 41 ± 4.76 | 52 ± 2.38
19 | O=c1cc(-c2ccccc2)oc2cc(O)c(O)c(O)c12 [Baicalein] | 35.3 ± 1.51 | 47.8 ± 3.4 | 50.1 ± 5.11
20 | O=C(O)[C@H]1O[C@@H](Oc2cc3oc(-c4ccccc4)cc(=O)c3c(O)c2O)[C@H](O)[C@@H](O)[C@@H]1O [Baicalin] | 22.5 ± 2.24 | 35.6 ± 3.09 | 49.3 ± 2.26
